The target in test [1] is T1, human recombinant Monoacylglycerol Lipase (Homo sapiens, UniProt Q99685).
T1 sequence (Q99685 1-303): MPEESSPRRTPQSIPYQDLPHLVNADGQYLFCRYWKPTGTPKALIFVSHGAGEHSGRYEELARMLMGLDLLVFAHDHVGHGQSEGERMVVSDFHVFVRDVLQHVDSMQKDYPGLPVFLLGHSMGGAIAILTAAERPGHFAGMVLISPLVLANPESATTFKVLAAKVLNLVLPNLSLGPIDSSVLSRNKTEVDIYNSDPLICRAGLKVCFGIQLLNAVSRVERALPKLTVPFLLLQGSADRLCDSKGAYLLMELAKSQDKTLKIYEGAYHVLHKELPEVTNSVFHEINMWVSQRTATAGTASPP
The test can be described thus: MAGL inactivation (kinact/KI from enzyme progress curves, T=0 min protocol). The following applies: from plot of Kobs vs. compound concentration, geometric mean of 2-5 determinations (b: ≥6).

In test [2] the target is T1, human recombinant Monoacylglycerol Lipase. In words: MAGL enzymatic assay (IC50; 7-HCA substrate added at T=0 min or T=30 min). The following applies: geometric mean of 2-5 determinations unless otherwise indicated. In kind it is biochemical.
The mark [3] stands for this setting: MAGL (T = 30 min) IC50, substrate 7-HCA added after 30 minute incubation (T=30 min).
Where [4] appears, read: substrate 7-HCA added immediately (T=0 min), read-out: MAGL (T = 0 min) IC50.

pIC50: −log10 of the molar value. Where two headings read alike, the source gives them in different places.

The term pIC50 denotes the IC50 on a negative log10 scale, so that one unit is a factor of ten. For the molecule `N#Cc1cc(C2COC3(CCN(C(=O)O[C@H](CO)C(F)(F)F)CC3)C2)ccc1F` (single isomer, unassigned) [Example 28], the “MAGL kinact/KI” value in test [1] is recorded as 16900 1/s per M. Moreover, the pIC50 in test [2] (setting [3]) was 8.52; in test [2] (setting [4]), 7.57.

Regarding `Cc1cn(C2COC3(CCN(C(=O)O[C@H](CO)C(F)(F)F)CC3)C2)nc1C` (single isomer, unassigned) [Example 54], in test [1], the “MAGL kinact/KI” value is recorded as 26500 1/s per M. Also, the pIC50 in test [2] (setting [3]) is 8.40; in test [2] (setting [4]), 7.68.

For `N#Cc1cccc(C2CC3(CCN(C(=O)O[C@H](CO)C(F)(F)F)CC3)C2)c1` [Example 46, (2R)-1,1,1-trifluoro-3-hydroxypropan-2-yl 2-(3-cyanophenyl)-7-azaspiro[3.5]nonane-7-carboxylate], the “MAGL kinact/KI” value in test [1] is 167000 1/s per M. The pIC50 in test [2] (setting [3]) is 9.00; in test [2] (setting [4]), 8.40.

In the case of `CN(C(=O)C1CC(F)(F)C1)[C@H]1COC2(CCN(C(=O)O[C@H](CO)C(F)(F)F)CC2)C1` [Example 58, (2R)-1,1,1-trifluoro-3-hydroxypropan-2-yl (3R)-3-{[(3,3-difluorocyclobutyl)carbonyl](methyl)amino}-1-oxa-8-azaspiro[4.5]decane-8-carboxylate], in test [1], the “MAGL kinact/KI” value was 1810 1/s per M. In addition, the pIC50 in test [2] (setting [3]) was 7.68; in test [2] (setting [4]) it was 6.77.

Take `O=C(O[C@H](CO)C(F)(F)F)N1CCC2(CC1)CC(c1ccccc1F)CO2` (single isomer, unassigned) [Example 26]: the “MAGL kinact/KI” value in test [1] is recorded as 87700 1/s per M. Besides, the figures for the pIC50 in test [2] (setting [3]) and in test [2] (setting [4]) were 9.00 and 8.10, respectively.

As to `O=C(O[C@H](CO)C(F)(F)F)N1CCC2(CC1)CC(c1cccc(C(F)F)n1)C2` [Example 77, (2R)-1,1,1-trifluoro-3-hydroxypropan-2-yl 2-[6-(difluoromethyl)pyridin-2-yl]-7-azaspiro[3.5]nonane-7-carboxylate], the “MAGL kinact/KI” value in test [1] is listed as 82100 1/s per M. Besides, the negative-log IC50 (pIC50) was 9.22 in test [2] (setting [3]) and 8.40 in test [2] (setting [4]).

In the case of `O=C(O[C@H](CO)C(F)(F)F)N1CCC2(CC1)CC(c1cccc(C(F)(F)F)n1)CO2` (single isomer, unassigned) [Example 14], in test [1], the “MAGL kinact/KI” value is given as 124000^b 1/s per M. In addition, the figures for the pIC50 in test [2] (setting [3]) and in test [2] (setting [4]) were 9.00 and 8.30, respectively.

For `N#Cc1cccc(C2CCOC3(CCN(C(=O)O[C@H](CO)C(F)(F)F)CC3)C2)c1` (single isomer, unassigned) [Example 73], in test [1], the “MAGL kinact/KI” value is given as 8870 1/s per M. In addition, the pIC50 in test [2] (setting [3]) is 8.52; in test [2] (setting [4]) it was 7.59.

For the molecule `CN(C1CC2(CCN(C(=O)O[C@H](CO)C(F)(F)F)CC2)C1)S(=O)(=O)C(C)(C)C` [Example 61, (2R)-1,1,1-trifluoro-3-hydroxypropan-2-yl 2-[(tert-butylsulfonyl)(methyl)amino]-7-azaspiro[3.5]nonane-7-carboxylate], the “MAGL kinact/KI” value in test [1] was 66900 1/s per M. For the same molecule, the pIC50 in test [2] (setting [3]) was 9.00; in test [2] (setting [4]), 8.05.

Consider `N#Cc1ccc(C2COC3(CCN(C(=O)O[C@H](CO)C(F)(F)F)CC3)C2)c(F)c1` (single isomer, unassigned) [Example 72], for which, in test [1], the “MAGL kinact/KI” value was 17000 1/s per M. Also, the pIC50 was 8.40 in test [2] (setting [3]) and 7.49 in test [2] (setting [4]).

Turning to `O=C(O[C@H](CO)C(F)(F)F)N1CCC2(CC1)CC(n1cccn1)C2` [Example 56, (2R)-1,1,1-trifluoro-3-hydroxypropan-2-yl 2-(1H-pyrazol-1-yl)-7-azaspiro[3.5]nonane-7-carboxylate], the “MAGL kinact/KI” value in test [1] was 1420 1/s per M. The pIC50 in test [2] (setting [3]) is 7.52; in test [2] (setting [4]), 6.51.

As to `O=C(O[C@H](CO)C(F)(F)F)N1CCC2(CC1)CC(Oc1ccc(C(F)F)cn1)C2` [Example 85, (2R)-1,1,1-trifluoro-3-hydroxypropan-2-yl 2-{[5-(difluoromethyl)pyridin-2-yl]oxy}-7-azaspiro[3.5]nonane-7-carboxylate], in test [1], the “MAGL kinact/KI” value is on record as 42100 1/s per M. Also, the pIC50 in test [2] (setting [3]) is 9.22; in test [2] (setting [4]), 8.40.

Take `O=C(O[C@H](CO)C(F)(F)F)N1CCC2(CC1)CC(Cn1cc(C(F)(F)F)cn1)CO2` (single isomer, unassigned) [Example 4]: the “MAGL kinact/KI” value in test [1] is reported as 4710 1/s per M. Besides, the figures for the pIC50 in test [2] (setting [3]) and in test [2] (setting [4]) were 8.10 and 7.19, respectively.

Take `N#Cc1cccc(C2COC3(CCN(C(=O)O[C@H](CO)C(F)(F)F)CC3)C2)c1F` (single isomer, unassigned) [Example 71]: the “MAGL kinact/KI” value in test [1] is recorded as 17800 1/s per M. In addition, the pIC50 in test [2] (setting [3]) was 8.52; in test [2] (setting [4]), 7.54.

Regarding `CC(C)(C)c1cnn(C2COC3(CCN(C(=O)O[C@H](CO)C(F)(F)F)CC3)C2)c1` (single isomer, unassigned) [Example 21], in test [1], the “MAGL kinact/KI” value is reported as 24400 1/s per M. Besides, the pIC50 is 8.70 in test [2] (setting [3]) and 8.05 in test [2] (setting [4]).

For `O=C(O[C@H](CO)C(F)(F)F)N1CCC2(CC1)CC(c1ccc(F)cn1)CO2` (single isomer, unassigned) [Example 16], the “MAGL kinact/KI” value in test [1] is given as 5010^b 1/s per M. Besides, the pIC50 in test [2] (setting [3]) is 8.05; in test [2] (setting [4]) it was 7.04.

Take `CN(C(=O)C(C)(C)C)C1CC2(CCN(C(=O)O[C@H](CO)C(F)(F)F)CC2)C1` [Example 42, (2R)-1,1,1-trifluoro-3-hydroxypropan-2-yl 2-[(2,2-dimethylpropanoyl)(methyl)amino]-7-azaspiro[3.5]nonane-7-carboxylate]: the “MAGL kinact/KI” value in test [1] was 309000 1/s per M. For the same molecule, the pIC50 in test [2] (setting [3]) was 9.40; in test [2] (setting [4]), 8.40.

In the case of `CN(C(=O)CC1CC1)C1CC2(CCN(C(=O)O[C@H](CO)C(F)(F)F)CC2)C1` [Example 43, (2R)-1,1,1-trifluoro-3-hydroxypropan-2-yl 2-[(cyclopropylacetyl)(methyl)amino]-7-azaspiro[3.5]nonane-7-carboxylate], the “MAGL kinact/KI” value in test [1] is 18500 1/s per M. For the same molecule, the results for the pIC50 in test [2] (setting [3]) and in test [2] (setting [4]) were 8.70 and 7.54, respectively.

As for `O=C(O[C@H](CO)C(F)(F)F)N1CCC2(CC1)CC(c1ccc(C(F)(F)F)nc1)C2` [Example 67, (2R)-1,1,1-trifluoro-3-hydroxypropan-2-yl 2-[6-(trifluoromethyl)pyridin-3-yl]-7-azaspiro[3.5]nonane-7-carboxylate], the “MAGL kinact/KI” value in test [1] is given as 60600 1/s per M. Besides, the pIC50 is 8.70 in test [2] (setting [3]) and 7.85 in test [2] (setting [4]).

Regarding `O=C(O[C@H](CO)C(F)(F)F)N1CCC2(CC1)CC(n1cc(Cl)cn1)CO2` (single isomer, unassigned) [Example 22], in test [1], the “MAGL kinact/KI” value is listed as 9780 1/s per M. The pIC50 in test [2] (setting [3]) is 8.40; in test [2] (setting [4]), 7.31.

With `N#Cc1ccc(C2COC3(CCN(C(=O)O[C@H](CO)C(F)(F)F)CC3)C2)nc1` (single isomer, unassigned) [Example 38], in test [1], the “MAGL kinact/KI” value is 1610 1/s per M. Besides, the figures for the pIC50 in test [2] (setting [3]) and in test [2] (setting [4]) were 7.62 and 6.70, respectively.

In the case of `O=C(O[C@H](CO)C(F)(F)F)N1CCC2(CC1)CC(Oc1cc(C(F)F)ccn1)C2` [Example 89, (2R)-1,1,1-trifluoro-3-hydroxypropan-2-yl 2-{[4-(difluoromethyl)pyridin-2-yl]oxy}-7-azaspiro[3.5]nonane-7-carboxylate], the “MAGL kinact/KI” value in test [1] is reported as 31900 1/s per M. In addition, the pIC50 in test [2] (setting [3]) is 9.10; in test [2] (setting [4]), 8.10.

The record behind these values is patent US10626125B2, “1,1,1-trifluoro-3-hydroxypropan-2-yl carbamate derivatives as MAGL inhibitors” (PFIZER INC., priority 2017, dated 2020).
